Data set [1] concerns the target Bromodomain-containing protein 4 (Homo sapiens, UniProt O60885). Briefly: Inhibition of BRD4 (unknown origin) incubated for 120 mins by TR-FRET assay. In general terms: In TR-FRET formats the signal depends on donor and acceptor labels being close together.
Data set [2] has as its system Hep 3B2. Briefly: cells. As to conditions: Homo sapiens, Hep3B, 120 h.
Data set [3] deals with Nicotinamide phosphoribosyltransferase (Homo sapiens, UniProt P43490). Briefly: Inhibition of recombinant NAMPT (unknown origin) by fluorescence based assay.
Data set [4] deals with Hep 3B2. Kind of data set: Induction of apoptosis in human Hep3B cells assessed as viable cells at 10 uM measured after 72 hrs by Annexin V-FITC/PI staining based flow cytometry (reference value: 94.08 %). Format: functional. For orientation: A flow cytometer gives signals particle by particle.
Data set [5] concerns Hep 3B2. Kind of data set: Induction of cell cycle arrest at G0/G1 phase in human Hep3B cells at 10 uM measured after 72 hrs by PI/RNase staining based flow cytometry (reference value: 56.73 %). It is filed as functional.
Data set [6] concerns Huh-7. Briefly: Antiproliferative activity against human Huh-7 cells incubated for 120 hrs in presence of FK866 by MTT assay. It is filed as functional, cell-based. As to conditions: Huh-7, 120 h. (In general: Tetrazolium assays rely on reduction of a dye to a coloured formazan, in cell work by metabolically active cells.)
In data set [7] the test system is HCCLM3. Kind of data set: Antiproliferative activity against human HCCLM3 cells incubated for 120 hrs in presence of FK866 by MTT assay. It is filed as functional, cell-based. As to conditions: HCCLM3, 120 h.
Data set [8] has as its system Hep 3B2. Briefly: Induction of cell cycle arrest at S phase in human Hep3B cells at 10 uM measured after 72 hrs by PI/RNase staining based flow cytometry (reference value: 31.90 %). Format: functional.
Data set [9] has as its system HCCLM3. Briefly: Antitumor activity against human HCCLM3 cells xenografted in BALB/c nude mouse at 60 mg/kg, ip for 27 days relative to control. Format: functional. As to conditions: time 27 day.
Data set [10] relates to Hep 3B2. Kind of data set: Antiproliferative activity against human Hep3B cells measured after 72 hrs. It is filed as functional, cell-based.
The test system of data set [11] is Hep 3B2. Kind of data set: Synergistic antiproliferative activity against human Hep3B cells measured after 72 hrs in presence of FK866. It is filed as functional, cell-based.
Data set [12] has as its system Hep 3B2. Kind of data set: Induction of cell cycle arrest at G2/M phase in human Hep3B cells at 10 uM measured after 72 hrs by PI/RNase staining based flow cytometry (reference value: 11.37 %). Format: functional.
Data set [13] relates to Hep 3B2. Briefly: Induction of apoptosis in human Hep3B cells assessed as necrotic cells at 10 uM measured after 72 hrs by Annexin V-FITC/PI staining based flow cytometry (reference value: 2.74 %). Format: functional.
Data set [14] can be described thus: Antiproliferative activity against human LX2 cells incubated for 120 hrs by MTT assay. It is filed as toxicity, cell-based. As to conditions: LX-2 cells.
The subject of data set [15] is Hep 3B2. Kind of data set: Induction of apoptosis in human Hep3B cells assessed as early apoptotic cells at 10 uM measured after 72 hrs by Annexin V-FITC/PI staining based flow cytometry (reference value: 2.13 %). Format: functional.
Data set [16] concerns HCCLM3. Briefly: cells. As to conditions: Homo sapiens, HCCLM3, 120 h.
Data set [17] has as its system Hep 3B2. Briefly: Induction of apoptosis in human Hep3B cells assessed as late apoptotic cells at 10 uM measured after 72 hrs by Annexin V-FITC/PI staining based flow cytometry (reference value: 1.05 %). It is filed as functional.
The subject of data set [18] is Huh-7. Briefly: cells. As to conditions: Homo sapiens, Huh-7, 120 h.
Data set [19] is described as follows: Antiproliferative activity against human LX2 cells incubated for 120 hrs in presence of FK866 by MTT assay. Format: toxicity, cell-based. As to conditions: LX-2 cells.
The test system of data set [20] is HCCLM3. Kind of data set: Antiproliferative activity against human HCCLM3 cells incubated for 120 hrs in presence of JQ1 by MTT assay. Format: functional, cell-based. As to conditions: HCCLM3, 120 h.
The nature of data set [21]: Antiproliferative activity against human LX2 cells incubated for 120 hrs in presence of JQ1 by MTT assay. Format: toxicity, cell-based. As to conditions: LX-2 cells.
Data set [22] concerns Hep 3B2. Kind of data set: Synergistic antiproliferative activity against human Hep3B cells measured after 72 hrs in presence of JQ1. Format: functional, cell-based.
Data set [23] concerns Huh-7. Briefly: Antiproliferative activity against human Huh-7 cells incubated for 120 hrs in presence of JQ1 by MTT assay. As to conditions: Huh-7, 120 h. Format: functional, cell-based.

Molecules are shown by their SMILES. Some results are limits rather than exact numbers.

Nicotinamide phosphoribosyltransferase, sequence (P43490 whole entry): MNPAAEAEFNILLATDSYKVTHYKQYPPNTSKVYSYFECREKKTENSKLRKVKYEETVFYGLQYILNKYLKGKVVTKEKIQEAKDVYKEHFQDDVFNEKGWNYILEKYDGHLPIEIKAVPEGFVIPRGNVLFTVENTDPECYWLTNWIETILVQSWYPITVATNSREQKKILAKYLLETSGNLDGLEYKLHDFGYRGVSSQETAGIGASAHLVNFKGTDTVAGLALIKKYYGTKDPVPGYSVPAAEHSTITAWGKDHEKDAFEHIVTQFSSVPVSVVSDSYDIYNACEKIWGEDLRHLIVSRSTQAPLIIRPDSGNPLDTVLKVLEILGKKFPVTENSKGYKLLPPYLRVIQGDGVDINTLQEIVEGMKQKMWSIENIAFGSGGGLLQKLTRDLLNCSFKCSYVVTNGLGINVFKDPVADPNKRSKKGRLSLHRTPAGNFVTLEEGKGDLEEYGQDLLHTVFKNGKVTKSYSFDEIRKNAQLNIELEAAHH

As a reminder, the IC50 is the concentration at which inhibition is half-maximal. For `Cc1sc2c(c1C)C(c1ccc(Cl)cc1)=N[C@@H](CC(=O)N1CCC(CCNC(=O)/C=C/c3cccnc3)CC1)c1nnc(C)n1-2`, the IC50 in data set [1] came out at 180 nM; in the data set on Hep 3B2 [2] it was 6260 nM; in data set [3] it was 87 nM.

Take `Cc1sc2c(c1C)C(c1ccc(Cl)cc1)=N[C@@H](CC(=O)NCCCCCNC(=O)/C=C/c1cccnc1)c1nnc(C)n1-2`: the IC50 in data set [1] was found to be 387 nM; in the data set with Hep 3B2 [2], 11300 nM; in [3], 115 nM.

A word on the TGI: it is how far tumour growth fell short of that in controls. Low readings indicate a weaker effect on the tumour, high ones a stronger effect on the tumour. Turning to `Cc1sc2c(c1C)C(c1ccc(Cl)cc1)=N[C@@H](CC(=O)OC(C)(C)C)c1nnc(C)n1-2`, the Activity in the data set with Hep 3B2 [4] stood at 74.38%; in the data set with Hep 3B2 [5], 73.49%; with Hep 3B2 [8], 17.92%; with Hep 3B2 [12] it was 8.59%; with Hep 3B2 [13] it was 3.54%; in the data set with Hep 3B2 [15], 16.25%. For the same molecule, the Activity with Hep 3B2 [17] is 5.83%. In addition, the IC50 turned out to be 670 nM in the data set on Huh-7 [6]; 400 nM in the data set on HCCLM3 [7]; 5000 nM in the data set with Hep 3B2 [10]; 1550 nM in the data set with Hep 3B2 [11]; 86200 nM in the data set with HCCLM3 [16]; 5000 nM with Hep 3B2 [2]. Further, half-maximal inhibition with Huh-7 [18] (IC50) was put at 62800 nM. In addition, the TGI with HCCLM3 [9] is on record as 51.08%. Also, the IC50 at 120 h in data set [14] and in [19] was below 32 nM throughout.

In the case of `Cc1sc2c(c1C)C(c1ccc(Cl)cc1)=N[C@@H](CC(=O)NCCCCCCNC(=O)/C=C/c1cccnc1)c1nnc(C)n1-2`, the results for the IC50 (in [1]; in the data set on Hep 3B2 [2]; in data set [3]) were 153 nM, 8140 nM and 12 nM, respectively.

Regarding `Cc1sc2c(c1C)C(c1ccc(Cl)cc1)=N[C@@H](CC(=O)Nc1ccc(CCNC(=O)/C=C/c3cccnc3)cc1)c1nnc(C)n1-2`, the IC50 in [1] was above 1000 nM; in the data set with Hep 3B2 [2], 11700 nM; in data set [3] it was 17 nM.

For `Cc1sc2c(c1C)C(c1ccc(Cl)cc1)=N[C@@H](CC(=O)Nc1ccc(NC(=O)/C=C/c3cccnc3)cc1)c1nnc(C)n1-2`, the IC50 in [1] is above 1000 nM; in the data set with Hep 3B2 [2], 24700 nM; in data set [3] it was 456 nM.

Consider `Cc1sc2c(c1C)C(c1ccc(Cl)cc1)=N[C@@H](CC(=O)N1CCC(NC(=O)/C=C/c3cccnc3)CC1)c1nnc(C)n1-2`, for which the IC50 in data set [1] is 276 nM; with Hep 3B2 [2], 5390 nM; in data set [3], above 1000 nM.

Regarding `Cc1sc2c(c1C)C(c1ccc(Cl)cc1)=N[C@@H](CC(=O)NCCOCCOCCNC(=O)/C=C/c1cccnc1)c1nnc(C)n1-2`, the IC50 in data set [1] turned out to be 525 nM; with Hep 3B2 [2], 21900 nM; in data set [3], 13 nM.

Turning to `Cc1sc2c(c1C)C(c1ccc(Cl)cc1)=N[C@@H](CC(=O)NCCNC(=O)/C=C/c1cccnc1)c1nnc(C)n1-2`, the IC50 came to 50 nM in data set [1], 12900 nM with Hep 3B2 [2] and 410 nM in [3].

With `O=C(/C=C/c1cccnc1)NCCCCC1CCN(C(=O)c2ccccc2)CC1` [DAPORINAD], the viability at 10 µM in the data set with Hep 3B2 [4] (Homo sapiens, Hep3B, read-out: Activity) was found to be 86.9%. For the same molecule, the Activity in the data set with Hep 3B2 [5] stood at 63.07%; with Hep 3B2 [8] it was 28.62%; with Hep 3B2 [12], 8.31%; in the data set with Hep 3B2 [13] it was 3.67%; in the data set with Hep 3B2 [15], 5.13%; with Hep 3B2 [17] it was 4.26%. Also, the IC50 with HCCLM3 [20] stood at 400 nM; in the data set on Hep 3B2 [10], 53700 nM; with HCCLM3 [16] it was 1010 nM; in the data set with Hep 3B2 [2], 53700 nM; with Hep 3B2 [22] it was 1550 nM; with Huh-7 [18] it was 2120 nM. The IC50 with Huh-7 [23] amounted to 670 nM. Moreover, in the data set on HCCLM3 [9] (Mus musculus, HCCLM3, 648 h, read-out: TGI), the inhibition in vivo at 60 mg/kg is 50.1%. Moreover, the figures for the IC50 at 120 h in [21] and in data set [14] were below 32 nM and 210 nM, respectively.

For the molecule `Cc1sc2c(c1C)C(c1ccc(Cl)cc1)=N[C@@H](CC(=O)N1CCC(CNC(=O)/C=C/c3cccnc3)CC1)c1nnc(C)n1-2`, the half-inhibitory concentration (IC50) in [1] was 141 nM; in the data set on Hep 3B2 [2], 5730 nM; in data set [3], above 1000 nM.

Consider `Cc1sc2c(c1C)C(c1ccc(Cl)cc1)=N[C@@H](CC(=O)NCCCCNC(=O)/C=C/c1cccnc1)c1nnc(C)n1-2`, for which the IC50 came out at 127 nM in [1], 9090 nM with Hep 3B2 [2] and 10 nM in data set [3].

Take `Cc1sc2c(c1C)C(c1ccc(Cl)cc1)=N[C@@H](CC(=O)NCc1ccc(NC(=O)/C=C/c3cccnc3)cc1)c1nnc(C)n1-2`: the IC50 came out at 319 nM in data set [1], 9560 nM in the data set on Hep 3B2 [2] and 309 nM in [3].

Take `Cc1sc2c(c1C)C(c1ccc(Cl)cc1)=N[C@@H](CC(=O)NCc1ccc(CNC(=O)/C=C/c3cccnc3)cc1)c1nnc(C)n1-2`: the IC50 came out at 129 nM in data set [1], 4550 nM in the data set with Hep 3B2 [2] and 199 nM in data set [3].

Consider `Cc1sc2c(c1C)C(c1ccc(Cl)cc1)=N[C@@H](CC(=O)NCCOCCNC(=O)/C=C/c1cccnc1)c1nnc(C)n1-2`, for which the IC50 worked out at 315 nM in data set [1], 27300 nM in the data set on Hep 3B2 [2] and 167 nM in [3].

With `Cc1sc2c(c1C)C(c1ccc(Cl)cc1)=N[C@@H](CC(=O)N1CCC(CCCCNC(=O)/C=C/c3cccnc3)CC1)c1nnc(C)n1-2`, the half-inhibitory concentration (IC50) in data set [1] is above 1000 nM; in the data set on Hep 3B2 [2], 8080 nM; in [3], 35 nM.

As to `Cc1sc2c(c1C)C(c1ccc(Cl)cc1)=N[C@@H](CC(=O)N1CCC(CCCNC(=O)/C=C/c3cccnc3)CC1)c1nnc(C)n1-2`, the half-maximal inhibitory concentration (IC50) in data set [1] is 615 nM; in the data set with Hep 3B2 [2] it was 4820 nM; in data set [3], 165 nM.

The record behind these values is ChEMBL document CHEMBL5500370, “Discovery of potent and novel dual NAMPT/BRD4 inhibitors for efficient treatment of hepatocellular carcinoma” (Eur J Med Chem, 2024).
